Measurements published in US11058642B2, “Tablets with improved friability” (TOWER LABORATORIES LTD, priority 2013, dated 2021).

How the values were obtained:
Format in all cases: physicochemical
[1] = Tablet hardness (Schuleuniger-4M tablet hardness tester); details: denture cleanser tablet (Table 1 formula, citric acid), additive 0.6%
Method: Tablets were compressed using ⅞″ round tooling on a Stokes F press. Compression force was adjusted to give the hardest possible tablet (limit set by capability of the press or by the appearance of tablet capping).
Hardness was measured using a Schuleuniger-4M tablet hardness tester.
Three (3) gram tablets were compressed using ⅞″ round tooling on a Stokes F press. Compression force was adjusted to give the hardest possible tablet (limit set by capability of the press or by appearance of tablet capping).
3.3 gram tablets were compressed using ⅞″ round tooling on a Stokes F press. As above, compression force was adjusted to give the hardest possible tablet (limit set by capability of the press or by appearance of tablet capping).
2.5 gram tablets were compressed using ⅞″ round tooling on a Stokes F press. As above, compression force was adjusted to give the hardest possible tablet (limit set by capability of the press or by appearance of tablet capping).

[2] = Tablet friability, modified USP-NF <1216> (Erweka TA, 10 tablets, 25 rpm; % unbroken tablets)
Method: Friability was measured in a manner similar to that described in the USP-NF, Chapter <1216>. The USP-NF method was modified in that the number of tablet used and the method of calculation were changed as indicated here. Ten (10) tablets were placed in an Erweka TA friability apparatus. The tablets were tumbled at 25 rpm for the indicated number of minutes. The percentage of unbroken tablets is reported.

[3] = Solubility in water of the tested materials; details: neat material
Excerpt: In an attempt to understand what chemical properties of the tested materials are critical to improving friability, we looked at some of the physical properties of the tested materials.

SMILES: OCC(O)CO [Glycerin]
- Hardness [1]: 9.5 kp
- Friability (% whole tablets) 2 min ([2]; denture cleanser tablet (Table 1 formula, citric acid), additive 0.6%, tumbled 2 min): 100 % whole tablets
- Friability (% whole tablets) 4 min ([2]; denture cleanser tablet (Table 1 formula, citric acid), additive 0.6%, tumbled 4 min): 100 % whole tablets
- Friability (% whole tablets) 6 min ([2]; denture cleanser tablet (Table 1 formula, citric acid), additive 0.6%, tumbled 6 min): 100 % whole tablets
- Friability (% whole tablets) 8 min ([2]; denture cleanser tablet (Table 1 formula, citric acid), additive 0.6%, tumbled 8 min): 100 % whole tablets
- Friability (% whole tablets) 10 min ([2]; denture cleanser tablet (Table 1 formula, citric acid), additive 0.6%, tumbled 10 min): 100 % whole tablets
- Friability improvement ([2]; summary for denture cleanser tablet (Table 1 formula), material at 0.6%): Yes
- Solubility in Water (w/w %) [3]: 100% w/w %
